Active and inactive are the calls of the source. The calls are words filed in the database; no cut-off is given here. Some results are limits rather than exact numbers.

Assay [1] addresses T1, 72 kDa type IV collagenase (Homo sapiens, UniProt P08253). The experiment in a line: Inhibition of human MMP2 using (7-methoxycoumarin-4-yl) acetyl pro-Leu-Gly-Leu-[3-(2,4-dinitrophenyl)-L-2,3-diamino-propionyl]-Ala-Arg-NH2 as substrate preincubated for 30 mins followed by substrate addition by microplate reader analysis.
Target sequence in this assay (P08253 whole entry): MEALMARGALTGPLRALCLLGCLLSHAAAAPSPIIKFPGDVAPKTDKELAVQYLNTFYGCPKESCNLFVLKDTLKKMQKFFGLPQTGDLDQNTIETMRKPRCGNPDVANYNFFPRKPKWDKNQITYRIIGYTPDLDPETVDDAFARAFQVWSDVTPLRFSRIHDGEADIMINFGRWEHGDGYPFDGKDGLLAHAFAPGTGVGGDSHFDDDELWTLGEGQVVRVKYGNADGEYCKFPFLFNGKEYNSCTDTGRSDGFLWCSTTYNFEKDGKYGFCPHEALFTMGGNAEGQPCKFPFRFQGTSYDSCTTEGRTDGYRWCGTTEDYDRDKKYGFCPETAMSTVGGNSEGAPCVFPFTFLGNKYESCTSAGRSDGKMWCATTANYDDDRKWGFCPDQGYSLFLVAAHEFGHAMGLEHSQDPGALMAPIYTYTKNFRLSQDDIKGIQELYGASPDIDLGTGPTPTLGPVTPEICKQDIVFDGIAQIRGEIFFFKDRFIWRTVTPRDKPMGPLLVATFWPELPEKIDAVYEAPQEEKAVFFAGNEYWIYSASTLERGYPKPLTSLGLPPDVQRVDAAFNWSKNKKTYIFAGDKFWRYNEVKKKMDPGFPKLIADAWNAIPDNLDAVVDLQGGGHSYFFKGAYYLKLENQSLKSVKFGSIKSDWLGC
Assay [2] deals with T2, Matrix metalloproteinase-9 (Homo sapiens, UniProt P14780). As to the kind of experiment: Inhibition of human MMP9 using (7-methoxycoumarin-4-yl) acetyl pro-Leu-Gly-Leu-[3-(2,4-dinitrophenyl)-L-2,3-diamino-propionyl]-Ala-Arg-NH2 as substrate preincubated for 30 mins followed by substrate addition by microplate reader analysis.
Assay [3] addresses T3, Collagenase 3 (Homo sapiens, UniProt P45452). The experiment in a line: Inhibition of MMP13 (unknown origin) using (7-methoxycoumarin-4-yl) acetyl pro-Leu-Gly-Leu-[3-(2,4-dinitrophenyl)-L-2,3-diamino-propionyl]-Ala-Arg-NH2 as substrate preincubated for 30 mins followed by substrate addition by microplate reader analysis.
For assay [4], the target named is T2, Matrix metalloproteinase-9. The experiment in a line: Inhibition of human MMP9 up to 100 uM using (7-methoxycoumarin-4-yl) acetyl pro-Leu-Gly-Leu-[3-(2,4-dinitrophenyl)-L-2,3-diamino-propionyl]-Ala-Arg-NH2 as substrate preincubated for 30 mins followed by substrate addition by microplate reader analysis.
Assay [5] addresses T3, Collagenase 3. The experiment in a line: Inhibition of MMP13 (unknown origin) up to 100 uM using (7-methoxycoumarin-4-yl) acetyl pro-Leu-Gly-Leu-[3-(2,4-dinitrophenyl)-L-2,3-diamino-propionyl]-Ala-Arg-NH2 as substrate preincubated for 30 mins followed by substrate addition by microplate reader analysis.
The target of assay [6] is T1, 72 kDa type IV collagenase. The experiment in a line: Inhibition of human MMP2 up to 100 uM using (7-methoxycoumarin-4-yl) acetyl pro-Leu-Gly-Leu-[3-(2,4-dinitrophenyl)-L-2,3-diamino-propionyl]-Ala-Arg-NH2 as substrate preincubated for 30 mins followed by substrate addition by microplate reader analysis.
Target sequence in this assay (P08253 110-660 limits assumed): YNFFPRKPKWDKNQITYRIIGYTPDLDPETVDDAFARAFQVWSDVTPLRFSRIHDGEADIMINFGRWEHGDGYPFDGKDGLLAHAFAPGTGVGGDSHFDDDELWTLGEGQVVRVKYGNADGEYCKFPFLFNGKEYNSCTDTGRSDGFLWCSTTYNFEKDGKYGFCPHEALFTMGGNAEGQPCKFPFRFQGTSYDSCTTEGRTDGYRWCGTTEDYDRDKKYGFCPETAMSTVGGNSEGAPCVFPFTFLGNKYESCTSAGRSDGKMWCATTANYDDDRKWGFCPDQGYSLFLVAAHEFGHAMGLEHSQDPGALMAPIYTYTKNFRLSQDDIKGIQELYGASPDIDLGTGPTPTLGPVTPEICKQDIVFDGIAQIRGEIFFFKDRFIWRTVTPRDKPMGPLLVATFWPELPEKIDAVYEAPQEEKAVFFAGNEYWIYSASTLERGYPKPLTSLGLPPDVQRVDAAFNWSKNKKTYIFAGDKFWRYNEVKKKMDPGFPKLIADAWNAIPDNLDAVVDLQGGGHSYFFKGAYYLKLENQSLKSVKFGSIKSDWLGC
The target in assay [7] is T4, Neutrophil collagenase (Homo sapiens, UniProt P22894). The experiment in a line: Inhibition of MMP8 (unknown origin) up to 100 uM using (7-methoxycoumarin-4-yl) acetyl pro-Leu-Gly-Leu-[3-(2,4-dinitrophenyl)-L-2,3-diamino-propionyl]-Ala-Arg-NH2 as substrate preincubated for 30 mins followed by substrate addition by microplate reader analysis.
Target sequence in this assay (P22894 101-467 limits assumed): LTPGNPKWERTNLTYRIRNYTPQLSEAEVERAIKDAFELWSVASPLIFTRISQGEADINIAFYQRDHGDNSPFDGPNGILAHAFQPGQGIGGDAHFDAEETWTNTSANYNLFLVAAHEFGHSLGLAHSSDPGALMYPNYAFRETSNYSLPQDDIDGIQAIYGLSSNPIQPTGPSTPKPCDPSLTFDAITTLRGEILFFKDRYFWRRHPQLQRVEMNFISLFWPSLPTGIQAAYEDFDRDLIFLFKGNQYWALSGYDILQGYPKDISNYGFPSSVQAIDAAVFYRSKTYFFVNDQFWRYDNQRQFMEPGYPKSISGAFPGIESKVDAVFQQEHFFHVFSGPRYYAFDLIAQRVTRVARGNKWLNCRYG
Assay [8] has as its target T4, Neutrophil collagenase. The experiment in a line: Inhibition of MMP8 (unknown origin) using (7-methoxycoumarin-4-yl) acetyl pro-Leu-Gly-Leu-[3-(2,4-dinitrophenyl)-L-2,3-diamino-propionyl]-Ala-Arg-NH2 as substrate preincubated for 30 mins followed by substrate addition by microplate reader analysis.
Target sequence in this assay (P22894 whole entry): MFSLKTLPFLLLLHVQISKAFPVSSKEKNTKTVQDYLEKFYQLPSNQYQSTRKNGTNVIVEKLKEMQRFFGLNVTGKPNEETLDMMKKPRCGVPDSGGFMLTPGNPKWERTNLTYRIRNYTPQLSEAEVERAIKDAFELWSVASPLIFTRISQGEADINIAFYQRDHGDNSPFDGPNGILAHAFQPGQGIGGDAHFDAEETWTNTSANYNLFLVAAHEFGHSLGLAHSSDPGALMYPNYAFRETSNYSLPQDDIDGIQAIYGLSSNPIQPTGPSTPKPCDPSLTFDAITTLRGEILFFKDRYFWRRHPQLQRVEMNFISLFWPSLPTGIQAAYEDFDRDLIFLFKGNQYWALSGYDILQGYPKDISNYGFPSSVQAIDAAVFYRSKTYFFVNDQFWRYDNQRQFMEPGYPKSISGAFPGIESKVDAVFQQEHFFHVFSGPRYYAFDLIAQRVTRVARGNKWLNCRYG

T2 sequence (P14780 whole entry): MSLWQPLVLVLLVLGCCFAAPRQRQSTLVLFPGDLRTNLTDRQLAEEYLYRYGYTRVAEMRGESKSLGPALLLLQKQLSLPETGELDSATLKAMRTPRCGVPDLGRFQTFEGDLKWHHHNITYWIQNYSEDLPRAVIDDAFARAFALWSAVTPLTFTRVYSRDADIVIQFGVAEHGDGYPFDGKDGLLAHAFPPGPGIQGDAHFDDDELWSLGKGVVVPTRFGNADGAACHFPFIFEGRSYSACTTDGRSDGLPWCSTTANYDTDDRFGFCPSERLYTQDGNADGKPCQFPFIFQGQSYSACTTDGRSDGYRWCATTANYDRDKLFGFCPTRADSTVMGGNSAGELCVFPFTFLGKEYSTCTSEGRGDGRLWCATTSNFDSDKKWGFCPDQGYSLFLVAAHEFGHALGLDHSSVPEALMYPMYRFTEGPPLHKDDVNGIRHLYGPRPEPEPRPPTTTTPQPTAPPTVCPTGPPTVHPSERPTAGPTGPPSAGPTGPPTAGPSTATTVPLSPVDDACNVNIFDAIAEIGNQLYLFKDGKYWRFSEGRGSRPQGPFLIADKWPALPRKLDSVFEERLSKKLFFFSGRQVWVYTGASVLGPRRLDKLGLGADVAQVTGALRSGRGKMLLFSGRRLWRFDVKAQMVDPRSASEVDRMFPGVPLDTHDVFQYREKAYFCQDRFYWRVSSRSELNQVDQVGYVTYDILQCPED

Turning to `CC(C)C(NS(=O)(=O)c1ccc(-c2ccc(OCCF)cc2)cc1)P(=O)(O)O` (stereo not given), the IC50 in assay [1] was 11.7 nM; in assay [2], 18.5 nM; on Collagenase 3 [3] it was 2.41 nM.
As for `COc1ccc(S(=O)(=O)N(Cc2cccnc2)C(C(C)C)P(=O)(O)O)cc1` (stereo not given), the inhibition entry (in assay [4]; at Collagenase 3 [5]; in assay [6]; at Neutrophil collagenase [7]) was “inactive” in each case.
As for `CC(C)C(N(Cc1ccccc1)S(=O)(=O)c1ccc(-c2ccc(OCCF)cc2)cc1)P(=O)(O)O` (stereo not given), the IC50 against Neutrophil collagenase [8] stood at 83.1 nM; in assay [1], 56.3 nM; in assay [2], 96.4 nM; against Collagenase 3 [3] it was 73.1 nM.
Turning to `COc1ccc(-c2ccc(S(=O)(=O)NC(C(C)C)P(=O)(O)O)cc2)cc1` (racemic), the figures for the half-inhibitory concentration (IC50) (in assay [1]; in assay [2]; against Collagenase 3 [3]) were 9.25 nM, 8.85 nM and 2.17 nM, respectively.
As to `COc1ccc(S(=O)(=O)N(Cc2ccccc2)C(CC(C)C)P(=O)(O)O)cc1` (stereo not given), the inhibition entry (in assay [4]; at Collagenase 3 [5]; in assay [6]; at Neutrophil collagenase [7]) was “inactive” each time.
`COc1ccc(-c2ccc(S(=O)(=O)N[C@@H](CCCCCF)P(=O)(O)O)cc2)cc1`: the IC50 was 6.5 nM in assay [1], 19 nM in assay [2] and 5.37 nM at Collagenase 3 [3].
On to `COCc1ccc(-c2ccc(S(=O)(=O)NC(C(C)C)P(=O)(O)O)cc2)s1` (stereo not given), for which the IC50 (at Neutrophil collagenase [8]; in assay [1]; in assay [2]; on Collagenase 3 [3]) was greater than 100000 nM each time.
On to `COc1ccc(S(=O)(=O)N(Cc2ccccc2)C(C(C)C)P(=O)(O)O)cc1` (stereo not given), for which the inhibition entry (in assay [4]; at Collagenase 3 [5]; in assay [6]; at Neutrophil collagenase [7]) was “inactive” throughout.
`CC(C)C(NS(=O)(=O)c1ccc(-c2ccc(F)nc2)cc1)P(=O)(O)O` (stereo not given): the half-inhibitory concentration (IC50) is greater than 100000 nM at Neutrophil collagenase [8], 628 nM in assay [1], 393 nM in assay [2] and 1030 nM against Collagenase 3 [3].
The like results for `COc1ccc(-c2ccc(S(=O)(=O)N[C@H](CCCCCF)P(=O)(O)O)cc2)cc1` were, in that order, 42.2 nM, 791 nM, greater than 100000 nM and 93.8 nM.
The like results for `Cc1ccc(-c2ccc(S(=O)(=O)NC(C(C)C)P(=O)(O)O)cc2)s1` (stereo not given) were, in that order, greater than 100000 nM, greater than 100000 nM, greater than 100000 nM and greater than 100000 nM.
`COc1ccc(S(=O)(=O)N(Cc2cccnc2)C(CC(C)C)P(=O)(O)O)cc1` (stereo not given): the inhibition result (in assay [4]; on Collagenase 3 [5]; in assay [6]; at Neutrophil collagenase [7]) was “inactive” throughout.

Values taken from ChEMBL document CHEMBL3751799, “Fluorinated matrix metalloproteinases inhibitors--Phosphonate based potential probes for positron emission tomography” (Bioorg Med Chem, 2016).
